Data on one substance can be found in patent US5622933A, “Multiple branch peptide constructions for use against HIV” (priority 1993, dated 1997).

For experiment [1], the system named is HIV. Kind of experiment: Inhibition of syncytia formation induced by HIV (summary statements). The format is cell-based. As for the experimental part: CEM or C8166 cells were chronically infected with HIV-1 Lai or HIV-2 Rod, or HIV-1MN, respectively. Infected cells (1×10^4) were incubated for 2 hours with various concentrations of MBPCs in 96-well plates. Uninfected Molt-4 cells (4×10^4) were then added in […]. Syncytia were counted after 18 hours at 37° C.

In experiment [2] the test system is HIV. As to the kind of experiment: Infection of HT-29 human colon cells through the GalCer receptor. In kind it is cell-based. As to the method:
The activity of MBPCs was evaluated on this alternative infection route as follows: HT-29 cells (5×10^5 cells) were incubated with MBPCs (5×10^-6 M) for 45 minutes and subsequently exposed to 100 TCID50 of HIV-1 (LAI), HIV-1 (NDK) or HIV-2 (ROD) for 1 hour at 37° C. The residual inoculum was inactivated by three successive trypsinations and infection was assessed by: i) direct measurement of HIV-1 p24^gag (for HIV-1 isolates) and RT activity (for HIV-1 and HIV-2 isolates) in the culture supernatants; ii) co-cultivation with human PBLs. The cells were treated with the MBPCs as follows: 1- none; 2- [GPGRAF]8 -MLC; 3- [GPGRAF]8 -MLCD; 4- [GPG(R)DAF]8 -MLC; 5- [GPGRAF]16 -MLC; 6- [[…]]4 -MLC; and 7- [[…]]4 -MLC, with all amino acids in L form unless noted otherwise. The results shown in FIG. 5A, which correspond to infection with HIV-1 (NDK), are representative of three separate experiments and the MBPC used is indicated by the number on the x-axis. The concentration of p24^gag (pg/ml) was measured during the co-culture experiment with PBLs (+++, >10 ng/ml 10 days post-infection; ++, >1 ng/ml 13 days post-infection; +, >1 ng/ml 16 days post-infection; -, no detectable p24^gag 1 month post-infection). Similar results were obtained with HIV-1 (LAI) and HIV-2 (ROD).

Another experiment relates to GalCer receptor. As to the kind of experiment: Binding of gp120 to GalCer (HPTLC binding assay). As to the method: In another experiment with the same MBPCs, the effect of MBPCs on the binding of gp120 to GalCer was analyzed using a high performance thin layer chromatography (HPTLC) binding assay. MBPCs (10^-4 M) were preincubated with GalCer for 1 hour at room temperature. After thorough washing, the HPTLC plates were incubated with HIV-1 recombinant gp120 (2.5 ug/ml) followed by rabbit anti-gp120 and ^125 I-goat anti-rabbit IgG. The plates were washed in PBS and exposed to Amersham Hyperfilm MP for 8 hours. As shown in FIG. 5B treatment of HT-29 cells with active MBPCs protected the cells from infection by HIV-1 (NDK isolate). This antiviral effect was correlated with its ability to block the binding of gp120 to GalCer.

With “(GPGRAF)16 -(K)8 -(K)4 -(K)2 -K-βA-OH [MBPC.12]”, in the experiment on HIV [1], the “MBPC concentration with which inhibiting effect on syncytia formation was observed in vitro” value was “around 10^-6 M” and the “inhibiting effect on syncytia formation, in words” value is listed as “results similar to those of MBPC.3”. Further, in the experiment on HIV [2], the “block of the infectivity of HIV on human colon cells” value was “completely block”. Further, the “binding to / activity on the Galactosyl Ceramide receptor” value in the experiment on GalCer receptor is “bind to the second receptor”.
